Assays:
Phakopsora pachyrhizi = test: Protective control of soy bean rust on soy beans (Use Example 4, greenhouse comparative test); type: in vivo; settings: soy bean seedlings, inoculated 1 day after spraying, untreated control 80
Description: The spray solutions were prepared in several steps:
The stock solutions were prepared: a mixture of acetone and/or dimethylsulfoxide and the wetting agent/emulsifier Wettol, which is based on ethoxylated alkylphenoles, in a relation (volume) solvent-emulsifier of 99 to 1 was added to 25 mg of the compound to give a total of 5 ml. Water was then added to total volume of 100 ml.
This stock solution was diluted with the described solvent-emulsifier-water mixture to the given concentration.
Leaves of pot-grown soy bean seedlings were sprayed to run-off with an aqueous suspension, containing the concentration of active ingredient or their mixture as described below. The plants were allowed to air-dry. The trial plants were cultivated for 1 day in a greenhouse chamber at 23-27° C. and a relative humidity between 60 and 80%. Then the plants were inoculated with spores of Phakopsora pachyrhizi. To ensure the success the artificial inoculation, the plants were transferred to a humid chamber with a relative humidity of about 95% and 20 to 24° C. for 24 h. The trial plants were cultivated for fourteen days in a greenhouse chamber at 23-27° C. and a relative humidity between 60 and 80%. The extent of fungal attack on the leaves was visually assessed as % diseased leaf area.

[1] = system: Puccinia recondita (Puccrt K4); test: Curative control of brown rust on wheat (Use Example 5, greenhouse comparative test); type: in vivo; settings: wheat seedlings, sprayed after inoculation, untreated control 90
Description: The spray solutions were prepared in several steps: The stock solutions were prepared: a mixture of acetone and/or dimethylsulfoxide and the wetting agent/emulsifier Wettol, which is based on ethoxylated alkylphenoles, in a relation (volume) solvent-emulsifier of 99 to 1 was added to 25 mg of the compound to give a total of 5 ml. Water was then added to total volume of 100 ml. This stock solution was diluted with the described solvent-emulsifier-water mixture to the given concentration. The first two developed leaves of pot-grown wheat seedling were dusted with spores of Puccinia recondita. To ensure the success the artificial inoculation, the plants were transferred to a humid chamber without light and a relative humidity of 95 to 99% and 20 to 24° C. for 24 h. The next day the plants were cultivated for 3 days in a greenhouse chamber at 20-24° C. and a relative humidity between 65 and 70%. Then the plants were sprayed to run-off with an aqueous suspension, containing the concentration of active ingredient or their mixture as described below. The plants were allowed to air-dry. Then the trial plants were cultivated for 8 days in a greenhouse chamber at 20-24° C. and a relative humidity between 65 and 70%. The extent of fungal attack on the leaves was visually assessed as % diseased leaf area.

Compound	Disease (%) at 150 ppm (Phakopsora pachyrhizi) [%]	Disease (%) at 63 ppm [1] [%]
OC(Cn1cncn1)(c1ccccc1)c1ccc(Oc2ccc(Cl)cc2)cc1Cl (stereo not drawn) [Compound I-1]	1	–
OC(Cc1ccccc1)(Cn1cncn1)c1ccc(Oc2ccc(Cl)cc2)cc1Cl (stereo not drawn) [Compound I-2, 2-[2-chloro-4-(4-chloro-phenoxy)-phenyl]-1-phenyl-3-[1,2,4]triazol-1-yl-propan-2-ol]	3	35
OC(C#Cc1ccccc1)(Cn1cncn1)c1ccc(Oc2ccc(Cl)cc2)cc1Cl (stereo not drawn) [Compound I-4]	–	20
OC(/C=C/c1ccccc1)(Cn1cncn1)c1ccc(Oc2ccc(Cl)cc2)cc1Cl (stereo not drawn) [Compound V20, reference compound]	50	55

From patent US20140141974A1, “Fungicidal phenylalkyl-substituted 2-[2-chloro-4-(4-chloro-phenoxy)-phenyl]-1-[1,2,4]triazol-1-yl-ethanol compounds” (BASF SE, priority 2011, published 2014)
